Values of other authors, collected in US11198731B2 (Exelixis, Inc., priority 2017, dated 2021).
Like-named read-outs stand apart in the source and are kept apart here.

Assays:
[1] = test system: platinum-pretreated NSCLC; conditions: cited from earlier work; for OS hazard ratio: vs docetaxel
[2] = test system: NSCLC without EGFR genetic alterations; conditions: cited from earlier work
[3] = test system: advanced RCC after prior VEGFR-TKI; conditions: cited from earlier work
[4] = test system: advanced CRPC with bone metastases; conditions: cited from earlier work
[5] = test system: previously-untreated advanced RCC of intermediate- or poor-risk; conditions: cited from earlier work
[6] = test system: locally advanced or metastatic UC; conditions: cited from earlier work
[7] = test system: cisplatin-ineligible UC; conditions: cited from earlier work
[8] = test system: locally advanced or metastatic UC; conditions: cited from earlier work; remark: listed apart in the source
[9] = test system: advanced RCC of clear cell or non-clear cell histology; conditions: cited from earlier work
[10] = test system: advanced NSCLC; conditions: cited from earlier work
[11] = PD-L1 positive population (2 1% PD-L1 expression)
[12] = subjects with ≥5% PD-L1 expression

For CC(=O)O[C@@]12CO[C@@H]1C[C@H](O)[C@@]1(C)C(=O)[C@H](O)C3=C(C)[C@@H](OC(=O)[C@H](O)[C@@H](NC(=O)OC(C)(C)C)c4ccccc4)C[C@@](O)([C@@H](OC(=O)c4ccccc4)[C@H]21)C3(C)C [docetaxel], which “Median OS” value ([1]; ITT population) is on record?
Its value is 9.6 months.

What about the ORR ([1]; ITT population) of the same compound?
Its ORR is 13%.

What about the “Median OS” value [1, 11] of the same compound?
Its value is 10.3 months.

What about the “Treatment-related Grade 3 or 4 AEs” value [1] of the same compound?
The value was 43%.

What about the “Median DOR” value ([1]; in vivo) of the same compound?
The value was 6.2 months.

And the “Subjects who discontinued treatment due to AE” value ([1]; in vivo)?
Its value is 19%.

Which results are given for C#Cc1cccc(Nc2ncnc3cc(OCCOC)c(OCCOC)cc23)c1 [erlotinib, reference compound]?
Progression as best response ([2]; % of subjects): 66%; Estimated median OS ([2]; in vivo): 5.1 months; ORR ([2]; in vivo): 3%; PFS ([2]; second or third line treatment): 1.8 months

With CO[C@H]1C[C@@H]2CC[C@@H](C)[C@@](O)(O2)C(=O)C(=O)N2CCCC[C@H]2C(=O)O[C@H]([C@H](C)C[C@@H]2CC[C@@H](OCCO)[C@H](OC)C2)CC(=O)[C@H](C)/C=C(\C)[C@@H](O)[C@@H](OC)C(=O)[C@H](C)C[C@H](C)/C=C/C=C/C=C/1C [everolimus] as the compound, how does the “ORR per IRC” value ([3]; ITT population) read?
Its value is 3%.

What about the “Median duration of PFS (Kaplan-Meier)” value ([3]; Primary Endpoint Intent-to-Treat population) of the same compound?
Its value is 3.8 months.

What about the “Median duration of OS (Kaplan-Meier)” value ([3]; in vivo) of the same compound?
The value was 16.5 months.

What about the “Treatment discontinuations due to AEs” value ([3]; incidence in each arm) of the same compound?
The value was 10%.

Which results are given for C[C@]12C=CC(=O)C=C1CC[C@@H]1[C@@H]2C(=O)C[C@@]2(C)[C@H]1CC[C@]2(O)C(=O)CO [prednisone, reference compound]?
Proportion of subjects with a bone scan response (BSR) per IRC ([4]; at Week 12): 3%; Median PFS per investigator ([4]; exploratory endpoint): 2.8 months; Median duration of BSR ([4]; in vivo): 1.8 months; Median duration of OS (Kaplan-Meier) ([4]; in vivo): 9.8 months

Which results are given for CCN(CC)CCNC(=O)c1c(C)[nH]c(/C=C2\C(=O)Nc3ccc(F)cc32)c1C [sunitinib, reference compound]?
Discontinued study treatment due to an AE ([5]; 16 subjects in each arm): 21%; Adverse events of ≥Grade 3 regardless of causality ([5]; % of subjects): 65%; ≥Grade 3 AE: PPE ([5]; in vivo): 4%; ≥Grade 3 AE: diarrhea ([5]; in vivo): 11%; ≥Grade 3 AE: fatigue ([5]; in vivo): 17%; ≥Grade 3 AE: hematological events ([5]; in vivo): 21%; ≥Grade 3 AE: hypertension ([5]; in vivo): 21%

Which results are given for “atezolizumab: humanized immunoglobulin (Ig) G1 monoclonal antibody that targets programmed death receptor 1 ligand (PD-L1)”?
Duration of response (DOR) ([6]; overall population): 21.7 months; Overall ORR ([6]; overall population): 13%; OS hazard ratio ([6]; overall population, vs chemotherapy): 0.85; ORR [6, 12]: 23.0%; Median OS ([7]; all subjects irrespective of PD-L1 expression level): 15.9 months; Overall ORR by IRF ([7]; all subjects): 23%; ORR by IRF ([7]; subjects with <5% PD-L1): 21%; ORR by IRF [7, 12]: 28%; Adverse events leading to treatment discontinuation ([8]; in vivo): 3.2%; Treatment-emergent anti-therapeutic antibodies detected ([8]; in vivo): 41.5%; irAE: aspartate aminotransferase (AST) increased ([8]; in vivo): 2%; irAE: pneumonitis ([8]; in vivo): 2%; Median OS ([8]; overall population): 7.9 months; Median PFS ([8]; overall population): 2.1 months; Overall ORR by IRF ([8]; overall population): 14.8%; ORR by IRF ([8]; subjects with <5% PD-L1 expression): 9.5%; ORR by IRF ([8]; subjects with ? 5% PD-L1 expression): 26.0%; Median OS [8, 12]: 11.9 months; Median OS ([9]; clear cell RCC): 28.9 months; Overall median PFS ([9]; clear cell RCC): 5.6 months; Grade 4 or 5 treatment-related AEs ([9]; in vivo): no Grade 4 or 5 treatment-related AEs; Treatment-related Grade 3 events ([9]; in vivo): 17%; Median OS ([1]; ITT population): 13.8 months; ORR ([1]; ITT population): 14%; OS hazard ratio ([1]; ITT population): 0.73; Median OS [1, 11]: 15.7 months; OS hazard ratio ([1]; PD-L1 positive population): 0.74; AE of any grade: asthenia ([1]; in vivo): 8%; AE of any grade: decreased appetite ([1]; in vivo): 9%; AE of any grade: fatigue ([1]; in vivo): 14%; AE of any grade: nausea ([1]; in vivo): 9%; Immune-related AE: colitis ([1]; in vivo): two; Immune-related AE: hepatitis ([1]; in vivo): two; Immune-related AE: pneumonitis ([1]; in vivo): four; Median DOR ([1]; in vivo): 16.3 months; Subjects who discontinued treatment due to AE ([1]; in vivo): 8%; Treatment-related Grade 3 or 4 AEs ([1]; in vivo): 15%; Median OS ([10]; PD-L1 high group): 26.9 months; Median PFS ([10]; PD-L1 high group): 5.4 months; Median duration of response ([10]; PD-L1 high group): ~10 months; AE leading to discontinuation: Grade 3 or 4 pneumonitis ([10]; in vivo): 1%; AE leading to discontinuation: any grade pneumonia ([10]; in vivo): 1%; Adverse events leading to treatment discontinuation ([10]; in vivo): 7%; Treatment-related AEs of Grade 3 or 4 ([10]; in vivo): 9%; Treatment-related Grade 5 event ([10]; in vivo): no treatment-related Grade 5 event; OS ([10]; unselected untreated NSCLC subjects): 23.5 months
